Assay results reported in patent US11479802B2, “Assays for screening activity of modulators of members of the hydroxy steroid (17-beta) dehydrogenase (HSD17B) family” (Regeneron Pharmaceuticals, Inc., priority 2017, dated 2022).
Counter-ions that a name gives are not always drawn.

Target: T1, human HSD17B13 (Homo sapiens, UniProt Q7Z5P4)
T1 sequence (Q7Z5P4 20-300): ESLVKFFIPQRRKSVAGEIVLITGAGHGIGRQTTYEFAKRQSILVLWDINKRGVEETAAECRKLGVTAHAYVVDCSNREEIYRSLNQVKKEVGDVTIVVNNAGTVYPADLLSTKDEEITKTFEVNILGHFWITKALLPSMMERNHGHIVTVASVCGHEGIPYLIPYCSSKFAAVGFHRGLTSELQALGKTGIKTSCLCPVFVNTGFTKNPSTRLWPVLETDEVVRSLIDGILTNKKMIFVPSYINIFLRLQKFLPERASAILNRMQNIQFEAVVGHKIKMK
Assay: Substrate screening of steroid and bioactive lipid libraries against purified recombinant HSD17B13 (NADH-linked luciferase assay)
Assay type: biochemical
Details: for HSD17B13 Enzymatic Activity Relative Light Units: 500 μM NAD+, 100 ng enzyme, 3 hours at 23° C.; for HSD17B13 Enzymatic Activity Percent Estradiol Control: normalized to 50 μM estradiol after subtraction of 5% DMSO
Summary of the method: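 Substrates (bioactive lipids 5 μM, steroids 50 μM; 5% DMSO) tested with 500 μM NAD+ and 100 ng recombinant human HSD17B13 in 0.2 M Tris-HCl pH 7.5, 3 h, 23° C. Luminescent NADH detection followed 1 h later; RLU normalized to estradiol (50 μM, 100%) and DMSO (0%) controls.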

[1] = Bioactive Lipid Library, 5 μM bioactive lipid (Estradiol Control 50 μM)
[2] = Bioactive Lipid Library, 5 μM bioactive lipid

Row | Compound | HSD17B13 Enzymatic Activity Relative Light Units [1] | HSD17B13 Enzymatic Activity Percent Estradiol Control [2] | HSD17B13 Enzymatic Activity Relative Light Units (Steroid Library, 50 μM steroid) | HSD17B13 Enzymatic Activity Percent Estradiol Control (Steroid Library, 50 μM steroid)
1 | CCCCC/C=C\CC(O)C(O)CCCCCCCC(=O)O (racemic) [(±)9(10)-DiHOME] | 391000 RLU | 4.98% |  | 
2 | CCCCC[C@H](O)/C=C/C=C\C/C=C\CCCCCCC(=O)O [15(S)-HETrE] | 638320 RLU | 26.14% |  | 
3 | CC1(C)[C@@H](O)CC[C@]2(C)[C@H]3C(=O)C=C4[C@@H]5C[C@@](C)(C(=O)O)CC[C@]5(C)CC[C@@]4(C)[C@]3(C)CC[C@@H]12 [18beta-Glycyrrhetinic acid] |  |  | 32720 RLU | −2.23%
4 | O=P([O-])(O)O[C@@H]1[C@@H](O)[C@H](O)[C@H](O)[C@H](O)[C@H]1OP(=O)([O-])O.[Na+].[Na+] [D-myo-Inositol-4,5-diphosphate (sodium salt)] | 281680 RLU | −3.27% |  | 
5 | CCCCCC(=O)CC[C@@H]1[C@@H](C/C=C\CCCC(=O)O)[C@@H](O)C[C@@H]1O [11β-13,14-dihydro-15-keto Prostaglandin F2α] | 310000 RLU | 2.13% |  | 
6 | Ptdlns-(4,5)-P2 (1,2-dipalmitoyl) (ammonium salt) | 24120 RLU | −22.73% |  | 
7 | CCCCC[C@H](O)/C=C/[C@@H]1[C@H](C/C=C\CC(=O)O)[C@@H](O)C[C@H]1O [2,3-dinor-8-iso Prostaglandin F2α] | 230040 RLU | −4.19% |  | 
8 | CC/C=C\C[C@H](O)/C=C/[C@@H]1[C@@H](CC(=O)CCCCC(=O)O)[C@@H](O)C[C@H]1O [Δ17-6-keto Prostaglandin F1α] | 286120 RLU | 0.24% |  | 
9 | CCCCC/C=C\CC1OC1CCCCCCCC(=O)O (racemic) [(±)9(10)-EpOME] | 354560 RLU | 2.23% |  | 
10 | CCCCC[C@H](O)/C=C/[C@@H]1[C@@H](CCCCCCC(=O)O)[C@@H]2C[C@H]1OO2 [Prostaglandin H1] | 145840 RLU | −10.85% |  | 
11 | CCCCC[C@@H](/C=C/C=C\CCCCCCCC(=O)O)OO [13(S)-HpODE] | 183040 RLU | −7.72% |  | 
12 | C[C@@H](O)CCC[C@H](O)CC[C@H]1[C@H](O)CC(=O)[C@@H]1CCCCCCC(=O)O [13,14-dihydro-19(R)-hydroxy Prostaglandin E1] | 337040 RLU | 4.26% |  | 
13 | CC(=O)OCC(=O)[C@@]1(O)CC[C@H]2[C@@H]3CCC4=CC(=O)CC[C@]4(C)[C@H]3C(=O)C[C@@]21C [Cortisone 21-acetate] |  |  | 200240 RLU | 0.69%
14 | CC(=O)[C@H]1CC[C@H]2[C@@H]3CCC4=CC(=O)CC[C@]4(C)[C@H]3CC[C@]12C [Progesterone] |  |  | 175680 RLU | 0.26%
15 | O=P(O)(O)OC1[C@@H](OP(=O)(O)O)[C@H](OP(=O)(O)O)C(O)[C@H](OP(=O)(O)O)[C@H]1OP(=O)(O)O (stereo partly drawn) [D-myo-Inositol-1,2,4,5,6-pentaphosphate (sodium salt)] | 398080 RLU | 5.52% |  | 
16 | CC/C=C\C[C@H]1O[C@H]1C/C=C\C/C=C\C/C=C\C/C=C\CCC(=O)O (racemic) [(±)16(17)-EpDPA] | 274120 RLU | −0.71% |  | 
17 | O=P(O)(O)OC1[C@@H](O)[C@@H](O)C(OP(=O)(O)O)[C@H](O)[C@H]1O (stereo partly drawn) [D-myo-Inositol-1,4-diphosphate (sodium salt)] | 439280 RLU | 8.63% |  | 
18 | CCCCCC(=O)/C=C/C=C\C/C=C\C/C=C\CCCC(=O)O [15-OxoETE] | 616120 RLU | −8.98% |  | 
19 | CCCCC[C@H](O)/C=C/[C@H]1[C@H](O)CC(=O)[C@@H]1C/C=C\CCCC(=O)NCCCCCNC(=O)CCCC[C@H]1SC[C@@H]2NC(=O)N[C@@H]21 [Prostaglandin E2-biotin] | 389960 RLU | 4.90% |  | 
20 | CC/C=C\CC(O)/C=C/C=C\C/C=C\C/C=C\C/C=C\CCC(=O)O (racemic) [(±)17-HDHA] | 492440 RLU | 15.29% |  | 

Row | Compound | HSD17B13 Enzymatic Activity Relative Light Units [1] | HSD17B13 Enzymatic Activity Percent Estradiol Control [2] | HSD17B13 Enzymatic Activity Relative Light Units (Steroid Library, 50 μM steroid) | HSD17B13 Enzymatic Activity Percent Estradiol Control (Steroid Library, 50 μM steroid)
21 | C[C@]12CC[C@H]3[C@@H]([C@H]4C[C@H]4[C@]4(O)C[C@@H](O)CC[C@]34C)[C@@H]1[C@@H]1C[C@@H]1C2=O [3b,5-Dihydroxy-6b,7b:15b,16b-dimethylene-5b-androstan17-one] |  |  | 183120 RLU | 0.39%
22 | CC(C)=CCC[C@]1(C)[C@@H](CC=C(C)C)C[C@@]2(CC=C(C)C)C(=O)[C@]1(C(=O)C(C)C)C(=O)C(CC=C(C)C)=C2O [Hyperforin] | 23920 RLU | −22.74% |  | 
23 | CC/C=C\C/C=C\C/C=C\C/C=C\C=C\C(O)C/C=C\CCC(=O)O (racemic) [(±)7-HDHA] | 361320 RLU | 5.54% |  | 
24 | CCC(=O)O[C@H]1CC[C@H]2[C@@H]3CC[C@H]4CC(=O)[C@H](C)C[C@]4(C)[C@H]3CC[C@]12C [Dromostanolone proprionate] |  |  | 212040 RLU | 0.90%
25 | C[C@@H](O)CCC[C@H](O)/C=C/[C@@H]1[C@@H](C/C=C\CCCC(=O)O)[C@@H](O)C[C@H]1O [19(R)-hydroxy Prostaglandin F2α] | 371400 RLU | 6.98% |  | 
26 | CCCCC[C@H](O)/C=C/[C@H]1[C@H](O)CC(=O)[C@@H]1CCCCC(=O)O [2,3-dinor Prostaglandin E1] | 344240 RLU | 4.83% |  | 
27 | CC/C=C\CC(O)C(O)C/C=C\C/C=C\C/C=C\CCCC(=O)O (racemic) [(±)14(15)-DiHETE] | 356480 RLU | 2.37% |  | 
28 | O=C(O)CCC/C=C\C[C@@H]1[C@@H](/C=C/[C@@H](O)CCCCCO)[C@H](O)C[C@@H]1O [20-hydroxy Prostaglandin F2α] | 378680 RLU | 7.56% |  | 
29 | CCCCC/C=C\C\C=C/C=C/C=C/[C@@H](O)[C@@H](O)CCCC(=O)O [5(S),6(R)-DiHETE] | 166040 RLU | 1.66% |  | 
30 | C[C@@H](O)CCC[C@H](O)/C=C/[C@@H]1[C@@H](CCCCCCC(=O)O)[C@@H](O)C[C@H]1O [19(R)-hydroxy Prostaglandin F1α] | 207560 RLU | −5.97% |  | 
31 | CCCCC/C=C\C=C\C(O)C/C=C\C/C=C\CCCC(=O)O (racemic) [(±)11-HETE] | 767720 RLU | 35.76% |  | 
32 | CCCCC/C=C\C/C=C\C/C=C\C=C\C(=O)CCCC(=O)O [5-OxoETE] | 261280 RLU | −1.90% |  | 
33 | CC(=O)S[C@@H]1CC2=CC(=O)CC[C@]2(C)[C@H]2CC[C@@]3(C)[C@@H](CC[C@@]34CCC(=O)O4)[C@H]12 [Spironolactone] |  |  | 184280 RLU | 0.41%
34 | CCCCC/C=C\C[C@@H](/C=C/C=C\C/C=C\CCCC(=O)O)OO [12(S)-HpETE] | 199760 RLU | −6.47% |  | 
35 | CCCCC[C@H](O)/C=C/[C@H]1OC(O)C[C@H](O)[C@@H]1CCCCC(=O)O (some centres unmarked) [2,3-dinor Thromboxane B1] | 364840 RLU | 3.01% |  | 
36 | CCCCC[C@H](O)/C=C/[C@H]1C(=O)CC(=O)[C@@H]1C/C=C\CCCC(=O)O [Prostaglandin K2] | 155600 RLU | −10.08% |  | 
37 | C[C@@H](O)CCC[C@@H](O)/C=C/[C@H]1[C@H](O)CC(=O)[C@@H]1CCCCCCC(=O)O [15(R),19(R)-hydroxy Prostaglandin E1] | 333200 RLU | 3.96% |  | 
38 | (±)11(12)-EET | 306600 RLU | 1.47% |  | 
39 | CCCCC/C=C\C[C@@H](O)/C=C/C=C/C=C/[C@@H](O)CCCC(=O)O (relative stereo) [6-trans Leukotriene B4] | 1209480 RLU | 68.61% |  | 
40 | CC/C=C\C[C@@H](/C=C/C=C\CCCCCCCC(=O)O)OO [13(S)-HpOTrE] | 35320 RLU | −18.70% |  | 
